According to patent US10550105B2 (Ribon Therapeutics Inc., priority 2018, dated 2020):

Biological target: PARP7 (Homo sapiens (Human), UniProt Q7Z3E1)
Assay: Enzymatic assay for inhibition of PARP7: TR-FRET displacement of biotinylated Probe A from the TIPARP active site
Type: binding
Conditions: Table A-1
Method: 20 nL of a dose response curve of each test compound was spotted in black 384-well polystyrene proxiplates (Perkin Elmer) using a Mosquito (TTP Labtech). […] Reactions were incubated at 25° C. for an additional 30 min, then read on an Envision platereader equipped with a LANCE/DELFIA top mirror (Perkin Elmer) using excitation of 320 nm and emission of 615 nm and […] with a 90 μs delay. The ratio of the 665/615 nm emission were calculated for each well to determine the amount of complex of TIPARP and Probe A in each well. […] The Hill Coefficient is normally allowed to float but may also be fixed at 1 in a 3-parameter fit. Y is the % inhibition and x is the compound concentration.

Sequence of PARP7 (Q7Z3E1 whole entry): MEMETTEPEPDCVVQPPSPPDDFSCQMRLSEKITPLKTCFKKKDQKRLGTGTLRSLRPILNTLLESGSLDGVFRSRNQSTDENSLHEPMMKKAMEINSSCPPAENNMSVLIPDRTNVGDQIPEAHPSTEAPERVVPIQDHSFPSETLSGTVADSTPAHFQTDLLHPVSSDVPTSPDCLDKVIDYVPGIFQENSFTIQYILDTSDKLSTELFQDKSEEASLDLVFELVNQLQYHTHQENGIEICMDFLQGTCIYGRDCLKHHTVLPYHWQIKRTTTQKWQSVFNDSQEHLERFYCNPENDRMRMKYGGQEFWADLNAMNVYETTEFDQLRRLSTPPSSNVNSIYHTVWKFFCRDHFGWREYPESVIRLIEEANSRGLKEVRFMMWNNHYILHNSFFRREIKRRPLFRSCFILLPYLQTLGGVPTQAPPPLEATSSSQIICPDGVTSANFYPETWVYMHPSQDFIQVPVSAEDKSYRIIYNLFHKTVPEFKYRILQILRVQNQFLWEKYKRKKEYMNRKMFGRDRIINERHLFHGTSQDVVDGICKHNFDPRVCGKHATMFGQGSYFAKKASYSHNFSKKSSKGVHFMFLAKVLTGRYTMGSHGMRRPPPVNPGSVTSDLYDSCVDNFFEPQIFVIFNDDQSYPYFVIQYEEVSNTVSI

Question: Which IC50 does the source give for `O=c1[nH]ncc(N2Cc3cccnc3C2)c1Cl` [Example 154, 4-Chloro-5-(5,7-dihydro-6H-pyrrolo[3,4-b]pyridin-6-yl)pyridazin-3(2H)-one] here?
Answer: 0.1 to 1 µM

Question: For `C[C@@H](COCCC(=O)N1CCC(Nc2ncc(C#N)s2)C1)Nc1cn[nH]c(=O)c1C(F)(F)F` (stereo partly drawn) [Example 717, 2-((1-(3-((S)-2-((6-Oxo-5-(trifluoromethyl)-1,6-dihydropyridazin-4-yl)amino)propoxy)propanoyl)pyrrolidin-3-yl)amino)thiazole-5-carbonitrile], which IC50 is on record?
Answer: < 0.1 µM

Question: Which IC50 does the source give for `O=C(C[C@H]1CC[C@@H](COc2cn[nH]c(=O)c2C(F)(F)F)O1)N1CCN(c2ncc(Cl)cn2)CC1` (single isomer, unassigned) [Example 565 Isomer C] here?
Answer: < 0.1 µM

Question: `CN(CC1c2ccccc2CN1c1cn[nH]c(=O)c1C(F)(F)F)c1cccc(C(=O)N2CCN(c3ccc(C#N)cn3)CC2)c1` (centres unmarked) [Example 343, 6-(4-(3-(Methyl((2-(6-oxo-5-(trifluoromethyl)-1,6-dihydropyridazin-4-yl)isoindolin-1-yl)methyl)amino)benzoyl)piperazin-1-yl)nicotinonitrile] was tested. Which IC50 did it give?
Answer: ≥ 1 µM

Question: How did the IC50 turn out when `N#Cc1ccc(N2CCN(C(=O)c3cccc(OC[C@@H]4C[C@@H](C#N)CN4c4cn[nH]c(=O)c4C(F)(F)F)c3)CC2)nc1` [Example 464, 6-(4-(3-(((2S,4R)-4-Cyano-1-(6-oxo-5-(trifluoromethyl)-1,6-dihydropyridazin-4-yl)pyrrolidin-2-yl)methoxy)benzoyl)piperazin-1-yl)nicotinonitrile] was run?
Answer: ≥ 1 µM

Question: Which IC50 does the source give for `O=C(CCOC[C@@H]1CCCN1c1cn[nH]c(=O)c1C(F)(F)F)N1CCN(c2ncc(Cl)cn2)CC1` [Example 482, (S)-5-(2-((3-(4-(5-Chloropyrimidin-2-yl)piperazin-1-yl)-3-oxopropoxy)methyl)pyrrolidin-1-yl)-4-(trifluoromethyl)pyridazin-3(2H)-one] here?
Answer: < 0.1 µM

Question: Which IC50 does the source give for `O=C(c1cncc(OCC2c3ccccc3CN2c2cn[nH]c(=O)c2C(F)(F)F)c1)N1CCN(c2ccc(F)cn2)CC1` (centres unmarked) [Example 375, 5-(1-(((5-(4-(5-Fluoropyridin-2-yl)piperazine-1-carbonyl)pyridin-3-yl)oxy)methyl)isoindolin-2-yl)-4-(trifluoromethyl)pyridazin-3(2H)-one] here?
Answer: < 0.1 µM

Question: For `N#Cc1ccc(N2CCN(C(=O)C[C@H]3CC[C@@H](COc4cn[nH]c(=O)c4C(F)(F)F)O3)CC2)nc1` [Example 580 Isomer C, 6-(4-[2-[(2R,5S)-5-([[6-oxo-5-(trifluoromethyl)-1,6-dihydropyridazin-4-yl]oxy]methyl)oxolan-2-yl]acetyl]piperazin-1-yl)pyridine-3-carbonitrile], which IC50 is on record?
Answer: < 0.1 µM

Question: `O=C(C[C@@H]1CC[C@@H](COc2cn[nH]c(=O)c2C(F)(F)F)O1)N1CCN(c2ncc(C(F)(F)F)cn2)CC1` (single isomer, unassigned) [Example 574 Isomer A] was tested. Which IC50 did it give?
Answer: 0.1 to 1 µM

Question: How did the IC50 turn out when `N#Cc1ccc(N2CC3CCC2CN3C(=O)CCOC[C@@H]2CCCN2c2cn[nH]c(=O)c2C(F)(F)F)nc1` (stereo partly drawn) [Example 101, 6-[5-(3-[[(2S)-1-[6-oxo-5-(trifluoromethyl)-1,6-dihydropyridazin-4-yl]pyrrolidin-2-yl]methoxy]propanoyl)-2,5-diazabicyclo[2.2.2]octan-2-yl]pyridine-3-carbonitrile] was run?
Answer: < 0.1 µM

Question: How did the IC50 turn out when `O=c1[nH]ncc(N2Cc3ccc(F)cc3C2)c1C(F)(F)F` [Example 169, 5-(5-Fluoroisoindolin-2-yl)-4-(trifluoromethyl)pyridazin-3(2H)-one] was run?
Answer: < 0.1 µM

Question: `O=c1[nH]ncc(N2Cc3cccc(OCCN4CCOCC4)c3C2)c1C(F)(F)F` [Example 214, 5-(4-(2-Morpholinoethoxy)isoindolin-2-yl)-4-(trifluoromethyl)pyridazin-3(2H)-one] was tested. Which IC50 did it give?
Answer: < 0.1 µM

Question: Which IC50 does the source give for `Cc1cnc(N2CCN(C(=O)c3cccc(OC[C@@H]4CCCN4c4cn[nH]c(=O)c4C(F)(F)F)c3)CC2)nc1` [Example 447, (S)-5-(2-((3-(4-(5-Methylpyrimidin-2-yl)piperazine-1-carbonyl)phenoxy)methyl)pyrrolidin-1-yl)-4-(trifluoromethyl)pyridazin-3(2H)-one] here?
Answer: < 0.1 µM

Question: How did the IC50 turn out when `CC(=O)NCCOc1cccc2c1CN(c1cn[nH]c(=O)c1C(F)(F)F)C2` [Example 211, N-(2-((2-(6-Oxo-5-(trifluoromethyl)-1,6-dihydropyridazin-4-yl)isoindolin-4-yl)oxy)ethyl)acetamide] was run?
Answer: < 0.1 µM

Question: `N#Cc1c(N2Cc3cccc(OCCO)c3C2)cn[nH]c1=O` [Example 176, 5-(4-(2-Hydroxyethoxy)isoindolin-2-yl)-3-oxo-2,3-dihydropyridazine-4-carbonitrile] was tested. Which IC50 did it give?
Answer: ≥ 1 µM

Question: With `O=C(c1cncc(OC[C@@H]2c3ccccc3CN2c2cn[nH]c(=O)c2C(F)(F)F)c1)N1CCN(c2ccc(Cl)cn2)CC1` [Example 388, (S)-5-(1-(((5-(4-(5-Chloropyridin-2-yl)piperazine-1-carbonyl)pyridin-3-yl)oxy)methyl)isoindolin-2-yl)-4-(trifluoromethyl)pyridazin-3(2H)-one] as the compound, how does the IC50 read?
Answer: < 0.1 µM

Question: For `N#Cc1ncc(N2CCN(C(=O)CCOC[C@@H]3CCCN3c3cn[nH]c(=O)c3C(F)(F)F)CC2)cn1` [Example 476, (S)-5-(4-(3-((1-(6-Oxo-5-(trifluoromethyl)-1,6-dihydropyridazin-4-yl)pyrrolidin-2-yl)methoxy)propanoyl)piperazin-1-yl)pyrimidine-2-carbonitrile], which IC50 is on record?
Answer: 0.1 to 1 µM

Question: How did the IC50 turn out when `C[C@@H]1CCN(c2cn[nH]c(=O)c2C(F)(F)F)[C@@H]1COc1cccc(C(=O)N2CCN(c3ccc(C#N)cn3)CC2)c1` [Example 460, 6-(4-(3-(((2S,3R)-3-methyl-1-(6-oxo-5-(trifluoromethyl)-1,6-dihydropyridazin-4-yl)pyrrolidin-2-yl)methoxy)benzoyl)piperazin-1-yl)nicotinonitrile] was run?
Answer: < 0.1 µM

Question: Which IC50 does the source give for `C[C@@H](CSCCC(=O)N1CCN(c2ncc(C(F)(F)F)cn2)CC1)Nc1cn[nH]c(=O)c1C(F)(F)F` [Example 702, (S)-5-((1-((3-Oxo-3-(4-(5-(trifluoromethyl)pyrimidin-2-yl)piperazin-1-yl)propyl)thio)propan-2-yl)amino)-4-(trifluoromethyl)pyridazin-3(2H)-one] here?
Answer: < 0.1 µM

Question: Which IC50 does the source give for `N#Cc1ccc(N2CCN(C(=O)CCCOC[C@@H]3c4ccccc4CN3c3cn[nH]c(=O)c3C(F)(F)F)CC2)nc1` [Example 410, (S)-6-(4-(4-((2-(6-Oxo-5-(trifluoromethyl)-1,6-dihydropyridazin-4-yl)isoindolin-1-yl)methoxy)butanoyl)piperazin-1-yl)nicotinonitrile] here?
Answer: < 0.1 µM

Question: How did the IC50 turn out when `O=c1[nH]ncc(N2Cc3ccc(OC4CCNCC4)cc3C2)c1Cl` [Example 158, 4-Chloro-5-(5-(piperidin-4-yloxy)isoindolin-2-yl)pyridazin-3(2H)-one] was run?
Answer: 0.1 to 1 µM

Question: `N#Cc1cnc(N2CCN(C(=O)c3cccc(OC[C@@H]4CCCN4c4cn[nH]c(=O)c4C(F)(F)F)c3)CC2)cn1` [Example 443, (S)-5-(4-(3-((1-(6-Oxo-5-(trifluoromethyl)-1,6-dihydropyridazin-4-yl)pyrrolidin-2-yl)methoxy)benzoyl)piperazin-1-yl)pyrazine-2-carbonitrile] was tested. Which IC50 did it give?
Answer: < 0.1 µM

Question: With `O=C(c1cccc(OCC2c3ccccc3CN2c2cn[nH]c(=O)c2C(F)(F)F)c1)N1CCn2ncnc2C1` (centres unmarked) [Example 398, 5-(1-((3-(5,6,7,8-Tetrahydro-[1,2,4]triazolo[1,5-a]pyrazine-7-carbonyl)phenoxy)methyl)isoindolin-2-yl)-4-(trifluoromethyl)pyridazin-3(2H)-one] as the compound, how does the IC50 read?
Answer: < 0.1 µM
